# What was measured:
# [1] = test system: bovine brain tubulin (BbTb); test: Equilibrium fluorescence titration of allocolchicine with BbTb; type: binding; conditions: 25°C
# [2] = test system: bovine brain tubulin (BbTb); test: Inhibition of paclitaxel-induced tubulin assembly; type: biochemical; conditions: read-out: IC50, inhibition of Taxol-induced assembly of BbTb; 2 μM tubulin
# [3] = test system: bovine brain tubulin (BbTb); test: Association kinetics of ligand binding to BbTb by fluorescence; conditions: 25°C, […] μM allocolchicine; for kf, apparent second order rate constant of the fast phase of biphasic binding to BbTb: 1 μM BbTb, 20 μM colchicinoid
# [4] = target: chicken erythrocyte tubulin (CeTb), ~95% βVI (Gallus gallus, UniProt P09207); test: biochemical; type: biochemical
# Chain of chicken erythrocyte tubulin (CeTb), ~95% βVI (P09207 whole entry): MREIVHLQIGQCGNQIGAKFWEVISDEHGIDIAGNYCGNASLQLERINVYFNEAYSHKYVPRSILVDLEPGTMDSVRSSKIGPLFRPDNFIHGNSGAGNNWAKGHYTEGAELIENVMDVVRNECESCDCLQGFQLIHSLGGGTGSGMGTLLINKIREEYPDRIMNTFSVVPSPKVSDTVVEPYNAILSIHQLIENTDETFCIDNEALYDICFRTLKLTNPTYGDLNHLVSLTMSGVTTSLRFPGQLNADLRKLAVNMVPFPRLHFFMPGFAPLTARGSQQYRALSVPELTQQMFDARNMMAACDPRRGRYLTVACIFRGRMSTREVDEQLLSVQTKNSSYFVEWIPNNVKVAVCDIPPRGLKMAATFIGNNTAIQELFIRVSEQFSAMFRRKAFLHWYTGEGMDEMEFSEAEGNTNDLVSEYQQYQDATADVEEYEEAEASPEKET
# Chain of chicken erythrocyte tubulin (CeTb), ~95% βVI (P02552 whole entry partner): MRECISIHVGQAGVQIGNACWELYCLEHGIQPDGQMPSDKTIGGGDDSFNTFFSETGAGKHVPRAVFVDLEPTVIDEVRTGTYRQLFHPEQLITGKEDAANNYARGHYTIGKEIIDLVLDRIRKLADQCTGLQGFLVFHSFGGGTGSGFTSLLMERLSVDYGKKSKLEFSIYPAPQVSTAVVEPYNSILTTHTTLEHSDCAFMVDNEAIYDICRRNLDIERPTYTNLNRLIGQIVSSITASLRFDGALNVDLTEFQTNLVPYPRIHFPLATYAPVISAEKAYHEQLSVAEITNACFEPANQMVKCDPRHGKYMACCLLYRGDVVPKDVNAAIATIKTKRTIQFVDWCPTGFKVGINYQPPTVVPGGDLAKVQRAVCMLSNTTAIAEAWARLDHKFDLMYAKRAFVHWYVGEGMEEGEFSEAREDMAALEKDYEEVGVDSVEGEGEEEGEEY
# [5] = test system: cells containing human β1; conditions: cited from earlier work
smiles,measurement,setting,value
"COC(=O)c1ccc2c(c1)[C@@H](NC(C)=O)CCc1cc(OC)c(OC)c(OC)c1-2 [Allocolchicine, allocolchicine]","Ligand concentration at which fluorescence enhancement plateaus, BbTb",[1]; 1 μM BbTb,about 20 μM
same,Association constant (Ka) for BbTb,"[1]; 1 μM tubulin, 10% DMSO, single site isotherm",500000 M⁻¹
same,IC50,[2],0.5 µM
same,"kf, apparent second order rate constant of the fast phase of biphasic binding to BbTb",[3],343 ± 7 M⁻¹ s⁻¹
same,Time for binding to BbTb to attain a plateau,[3]; 1 μM tubulin,≤ 600 s
"COc1cc([C@@H]2c3cc4c(cc3[C@H](O)[C@H]3COC(=O)[C@H]23)OCO4)cc(OC)c1OC [Podophyllotoxin, podophyllotoxin]",IC50,[4],25 ± 1 µM
same,IC50 for CeTb assembly relative to IC50 for BbTb,"[4]; 5 μM tubulin, same experimental conditions",about 15 fold
COc1cc2c(cc1O)CC[C@@H]1[C@@H]2CC[C@]2(C)[C@@H](O)CC[C@@H]12 [2-methoxyestradiol],Sensitivity of cells containing human β1 to ligand,[5],insensitive
"COc1cc2c(c(OC)c1OC)-c1ccc(Cl)c(=O)cc1C(NC(C)=O)CC2 (stereo not drawn) [Chlorocolchicine, 10-demethoxy-10-chlorocolchicine]","kf, apparent second order rate constant of the fast phase of biphasic binding to BbTb",[3],367 ± 7 M⁻¹ s⁻¹

# Reference: article PMC2852430 (Biochemistry, 2010)
